pIC50: −log10 of the molar value.

One experiment concerns the target recombinant human baculovirus-expressed cMET (Homo sapiens (Human), UniProt P08581). Nature of the experiment: c-MET kinase assay (HTRF KinEASE).
Settings: not given
Type of experiment: biochemical. On the technique in general: TR-FRET usually uses a lanthanide donor and a delayed reading to cut background.
By pIC50 is commonly meant the IC50 on a negative log10 scale, so that one unit is a factor of ten. Consider `O=C(Nc1ccc(Oc2cccn3nccc23)c(F)c1)C1CCN(c2ccc(F)cc2)C1=O` (stereo not shown) [Example 10, 1-(4-Fluoro-phenyl)-2-oxo-pyrrolidine-3-carboxylic acid [3-fluoro-4-(pyrazolo[1,5-a]pyridin-4-yloxy)-phenyl]-amide], for which the negative-log IC50 (pIC50) was 7.00 to 8.00.

Staying with this experiment, now noted: average of two or more determinations; read-out: c-MET IC50.
Consider “1-Methyl-5-trifluoromethyl-1H-pyrazole-4-carboxylic acid [4-(pyrazolo[1, 5-a]pyridin-4-yloxy)-phenyl]-amide [Example 17]”, for which the pIC50 is 5.00 to 6.00.

On to `O=C(Nc1ccc(Oc2cccn3nccc23)cc1)c1cccn(-c2ccc(F)cc2)c1=O` [Example 1, 1-(4-Fluoro-phenyl)-2-oxo-1,2-dihydro-pyridine-3-carboxylic acid [4-(pyrazolo[1,5-a]pyridin-4-yloxy)-phenyl]-amide], for which the negative-log IC50 (pIC50) is > 8.00.

For `O=C(Nc1ccc(Oc2cccn3nccc23)c(F)c1)c1cccn(-c2ccc(F)cc2)c1=O` [Example 4, 1-(4-Fluoro-phenyl)-2-oxo-1,2-dihydro-pyridine-3-carboxylic acid [3-fluoro-4-(pyrazolo[1,5-a]pyridin-4-yloxy)-phenyl]-amide], the negative-log IC50 (pIC50) is > 8.00.

In the case of `O=C(Nc1ccc(F)cc1)C1(C(=O)Nc2ccc(Oc3cccn4nccc34)c(F)c2)CC1` [Example 5, Cyclopropane-1,1-dicarboxylic acid (4-fluoro-phenyl)-amide [3-fluoro-4-(pyrazolo[1,5-a]pyridin-4-yloxy)-phenyl]-amide], the negative-log IC50 (pIC50) is > 8.00.

On to `O=C(Cc1ccc(F)cc1)NC(=S)Nc1ccc(Oc2cccn3nccc23)c(F)c1` [Example 6, 1-[2-(4-Fluoro-phenyl)-acetyl]-3-[3-fluoro-4-(pyrazolo[1,5-a]pyridin-4-yloxy)-phenyl]-thiourea], for which the negative-log IC50 (pIC50) is 7.00 to 8.00.

For `O=C(Nc1ccc(Oc2cccn3nccc23)c(F)c1)c1cccn(Cc2ccc(F)cc2)c1=O` [Example 8, 1-(4-Fluoro-benzyl)-2-oxo-1,2-dihydro-pyridine-3-carboxylic acid [3-fluoro-4-(pyrazolo[1,5-a]pyridin-4-yloxy)-phenyl]-amide], the pIC50 is 6.00 to 7.00.

Take `O=C(Nc1ccc(Oc2cccn3nccc23)c(F)c1)c1cccn(Cc2cccc(F)c2)c1=O` [Example 9, 1-(3-Fluoro-benzyl)-2-oxo-1,2-dihydro-pyridine-3-carboxylic acid [3-fluoro-4-(pyrazolo[1,5-a]pyridin-4-yloxy)-phenyl]-amide]: the pIC50 is 6.00 to 7.00.

In the case of `O=C(Nc1ccc(Oc2cccn3nccc23)c(F)c1)c1c[nH]c(=O)n(-c2ccc(F)cc2)c1=O` [Example 11, 3-(4-Fluoro-phenyl)-2,4-dioxo-1,2,3,4-tetrahydro-pyrimidine-5-carboxylic acid [3-fluoro-4-(pyrazolo[1,5-a]pyridin-4-yloxy)-phenyl]-amide], the pIC50 is 7.00 to 8.00.

Take `O=C(Nc1ccc(Oc2cccn3nccc23)c(F)c1)c1c(I)ccn(-c2ccc(F)cc2)c1=O` [Example 12, 1-(4-Fluoro-phenyl)-4-iodo-2-oxo-1,2-dihydro-pyridine-3-carboxylic acid [3-fluoro-4-(pyrazolo[1,5-a]pyridin-4-yloxy)-phenyl]-amide]: the negative logarithm of the IC50 (pIC50) is 7.00 to 8.00.

Take `CCOc1ccn(-c2ccc(F)cc2)c(=O)c1C(=O)Nc1ccc(Oc2cccn3nccc23)c(F)c1` [Example 13, 4-Ethoxy-1-(4-fluoro-phenyl)-2-oxo-1,2-dihydro-pyridine-3-carboxylic acid [3-fluoro-4-(pyrazolo[1,5-a]pyridin-4-yloxy)-phenyl]-amide]: the negative logarithm of the IC50 (pIC50) is > 8.00.

`CCOCCOc1ccn(-c2ccc(F)cc2)c(=O)c1C(=O)Nc1ccc(Oc2cccn3nccc23)c(F)c1` [Example 14, 4-(2-Ethoxy-ethoxy)-1-(4-fluoro-phenyl)-2-oxo-1,2-dihydro-pyridine-3-carboxylic acid [3-fluoro-4-(pyrazolo[1,5-a]pyridin-4-yloxy)-phenyl]-amide]: the negative logarithm of the IC50 (pIC50) is 7.00 to 8.00.

In the case of `CCNc1ccn(-c2ccc(F)cc2)c(=O)c1C(=O)Nc1ccc(Oc2cccn3nccc23)c(F)c1` [Example 15, 4-Ethylamino-1-(4-fluoro-phenyl)-2-oxo-1,2-dihydro-pyridine-3-carboxylic acid [3-fluoro-4-(pyrazolo[1,5-a]pyridin-4-yloxy)-phenyl]-amide], the pIC50 was 7.00 to 8.00.

`Cc1c(C(=O)Nc2ccc(Oc3cccn4nccc34)cc2)cnn1-c1ccc(F)cc1` [Example 18, 1-(4-Fluoro-phenyl)-5-methyl-1H-pyrazole-4-carboxylic acid [4-(pyrazolo[1,5-a]pyridin-4-yloxy)-phenyl]-amide]: the pIC50 was 5.00 to 6.00.

Regarding `O=C(Nc1ccc(Oc2cccn3nccc23)cc1)c1cnn(-c2ccccc2)c1C(F)(F)F` [Example 19, 1-Phenyl-5-trifluoromethyl-1H-pyrazole-4-carboxylic acid [4-(pyrazolo[1,5-a]pyridin-4-yloxy)-phenyl]-amide], the negative logarithm of the IC50 (pIC50) is 5.00 to 6.00.

In the case of `Cc1nn(-c2ccccc2)c(C)c1C(=O)Nc1ccc(Oc2cccn3nccc23)cc1` [Example 20, 3,5-Dimethyl-1-phenyl-1H-pyrazole-4-carboxylic acid [4-(pyrazolo[1,5-a]pyridin-4-yloxy)-phenyl]-amide], the pIC50 was 5.00 to 6.00.

On to `COc1cc(Oc2ccc(NC(=O)c3cccn(-c4ccc(F)cc4)c3=O)cc2F)c2ccnn2c1` [Example 22, 1-(4-Fluoro-phenyl)-2-oxo-1,2-dihydro-pyridine-3-carboxylic acid [3-fluoro-4-(6-methoxy-pyrazolo[1,5-a]pyridin-4-yloxy)-phenyl]-amide], for which the pIC50 was 6.00 to 7.00.

Turning to `O=C(Nc1ccc(Oc2cccn3ncc(Cl)c23)c(F)c1)c1cccn(-c2ccc(F)cc2)c1=O` [Example 23, 1-(4-Fluoro-phenyl)-2-oxo-1,2-dihydro-pyridine-3-carboxylic acid [4-(3-chloro-pyrazolo[1,5-a]pyridin-4-yloxy)-3-fluoro-phenyl]-amide], the negative logarithm of the IC50 (pIC50) was 6.00 to 7.00.

On to `O=C(Nc1ccc(Oc2cc(Br)cn3nccc23)c(F)c1)c1cccn(-c2ccc(F)cc2)c1=O` [Example 24, (4-Fluoro-phenyl)-2-oxo-1,2-dihydro-pyridine-3-carboxylic acid [4-(6-bromo-pyrazolo[1,5-a]pyridin-4-yloxy)-3-fluoro-phenyl]-amide], for which the pIC50 is > 8.00.

As for `Cn1cc(-c2cc(Oc3ccc(NC(=O)C4(C(=O)Nc5ccc(F)cc5)CC4)cc3F)c3ccnn3c2)cn1` [Example 32, Cyclopropane-1,1-dicarboxylic acid {3-fluoro-4-[6-(1-methyl-1H-pyrazol-4-yl)-pyrazolo[1,5-a]pyridin-4-yloxy]-phenyl}-amide(4-fluoro-phenyl)-amide], the pIC50 is > 8.00.

Turning to `CN1CCN(c2ccc(-c3cc(Oc4ccc(NC(=O)C5(C(=O)Nc6ccc(F)cc6)CC5)cc4F)c4ccnn4c3)cn2)CC1` [Example 36, Cyclopropane-1,1-dicarboxylic acid (3-fluoro-4-{6-[6-(4-methyl-piperazin-1-yl)-pyridin-3-yl]-pyrazolo[1,5-a]pyridin-4-yloxy}-phenyl)-amide (4-fluoro-phenyl)-amide], the pIC50 was > 8.00.

Staying with this experiment, now noted: read-out: c-MET IC50.
In the case of `COc1ccc(-c2cc(Oc3ccc(NC(=O)c4cccn(-c5ccc(F)cc5)c4=O)cc3F)c3ccnn3c2)cn1` [Example 35, 1-(4-Fluoro-phenyl)-2-oxo-1,2-dihydro-pyridine-3-carboxylic acid {3-fluoro-4-[6-(6-methoxy-pyridin-3-yl)-pyrazolo[1,5-a]pyridin-4-yloxy]-phenyl}-amide], the pIC50 is > 8.00.
